Columns and labels:
[1] = Stability test of anhydrous form in climatic chamber (50% R.H., about 25° C., 24 hours); format: physicochemical
Procedure: (§1) • Instrument: Mettler DL38, V30 or equivalent • Electrode: Double platinum pin electrode DM 143-SC for Karl Fischer titration. • Titrant: Karl Fischer reagent 5 mg H2O/ml • Solvent: 30 ml of methanol previously neutralized with Karl Fischer reagent. • Procedure: about 0.2 g of the product, accurately weighed, were dissolved in the solvent and titrated with the Karl Fischer reagent.

CXCR1 = target: T1, CXCR1 (Homo sapiens, UniProt P25024); conditions: background, literature; cited from earlier work
T1 sequence (P25024 1-350): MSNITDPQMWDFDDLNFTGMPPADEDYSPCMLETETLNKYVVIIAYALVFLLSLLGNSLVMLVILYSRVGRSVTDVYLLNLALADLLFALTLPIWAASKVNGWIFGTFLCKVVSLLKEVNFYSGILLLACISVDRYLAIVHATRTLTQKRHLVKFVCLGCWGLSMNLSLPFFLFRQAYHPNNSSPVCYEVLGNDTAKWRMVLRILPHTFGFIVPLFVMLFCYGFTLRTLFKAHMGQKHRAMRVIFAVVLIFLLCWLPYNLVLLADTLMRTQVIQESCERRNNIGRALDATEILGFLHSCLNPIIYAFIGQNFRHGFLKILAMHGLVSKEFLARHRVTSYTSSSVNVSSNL

CXCR2 = target: T2, CXCR2 (Homo sapiens, UniProt P25025); conditions: background, literature; cited from earlier work
T2 sequence (P25025 1-360): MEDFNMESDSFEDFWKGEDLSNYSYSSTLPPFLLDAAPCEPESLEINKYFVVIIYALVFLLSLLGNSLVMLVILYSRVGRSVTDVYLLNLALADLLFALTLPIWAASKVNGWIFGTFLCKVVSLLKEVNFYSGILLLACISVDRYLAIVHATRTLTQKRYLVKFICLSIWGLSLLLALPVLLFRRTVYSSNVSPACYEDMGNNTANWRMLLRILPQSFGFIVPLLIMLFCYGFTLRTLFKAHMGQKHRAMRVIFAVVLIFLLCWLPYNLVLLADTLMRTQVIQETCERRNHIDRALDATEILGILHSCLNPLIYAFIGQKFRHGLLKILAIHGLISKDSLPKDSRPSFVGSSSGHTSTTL

[2] = background, literature; cited from earlier work
[3] = Stability test under accelerated conditions B (40° C. and 75% R.H.); format: physicochemical; design: key to Appearance: Compl.: Compl: compliant
Procedure: • Apparatus: Agilent HP 1100, HP 1200 or equivalent HPLC system with UV detector • Detector: wavelength: 220 nm • Column: BDS Hypersyl C18, 250×4.6 mm, 5 μm (Thermo) or equivalent • Column temperature: 35° C. • Mobile phase: (A) Buffer solution KH2PO4 0.025M (pH 3.0). Procedure: dissolve 3.4 g of potassium dihydrogen phosphate in water and dilute to 1000 ml with water; adjust to pH 3.0 with dilute phosphoric acid or with potassium hydroxide solutions. (B) acetonitrile. • Flow: 1.3 ml/minute • Injection Volume: 10 μl • Time between injections: 26 min • Diluent: H2O/CH3CN (40/60) • Relative retention time: DF 2755 Rt 11.8 min • Gradient: Table 2
• Chromatographic conditions • Apparatus: Agilent HP 1100, HP 1200 or equivalent HPLC system with UV detector • Detector: wavelength: 294 nm • Column: Chiralpak AS-RH, 150×4.6 mm […] (Daicel) or equivalent • Column temperature: 35° C. • Mobile phase: (A) Buffer solution KH2PO4 0.025M (pH 3.0) Procedure: dissolve 3.4 g of potassium dihydrogen phosphate in water and dilute to 1000 ml with water; adjust to pH 3.0 with dilute phosphoric acid or with potassium hydroxide solutions; (B) acetonitrile • Flow: 0.7 ml/minute • Injection volume: 10 μl • Time between injections: 45 min • Diluent: H2O/CH3CN (40/60) • Eluent: 70% Mobile phase A, 30% Mobile phase B
as §1
(§2) The analysis was carried out on three samples and the results averaged. The limit had to be not more than 10.0%.
(§3) The monohydrate DF2755A was then subjected to stability tests under the following conditions: • A) at 30° C. and 65% R.H. (up to 18 months) and • B) at 40° C. and 75% R.H. (accelerated stability up to 12 months).
(§4) The samples were analysed for appearance, water content, HPLC purity, HPLC assay, HPLC enantiomeric purity and DSC thermal behaviour.

[4] = Stability test under conditions A (30° C. and 65% R.H.); format: physicochemical
Procedure: as §3, §4

[5] = Water content by Karl-Fischer of the prepared product; format: physicochemical; conditions: product as prepared by controlled hydration
Procedure: as §1
[formula] • where • V=ml of the Karl Fischer reagent used in the titration • e=equivalent of the Karl Fischer reagent (mg H2O/ml) • w=weight of the sample in g
as §2

[6] = Particle size distribution (Malvern Mastersizer 3000, Aero S); format: physicochemical; conditions: powder of Example 3A
Procedure: Particle Size Distribution was measured by Malvern Mastersizer 3000 using Aero S accessory.

[7] = Tapped and bulk density (Ph. Eur. 2.9.34), compressibility index, Hausner ratio; format: physicochemical
Procedure: Tapped and Bulk Density were determined with a density tester ERWEKA SMV 102 (Heusenstamm, Germany) according to European Pharmacopeia (Ph. Eur. 2.9.34).
Compressibility Index was calculated according to the formula:
C.I.=100×(tapped density−bulk density)/tapped density.
Hausner ratio was calculated according to the formula:
H.r.=tapped density/bulk density

[8] = 50% R.H., about 25° C., 24 hours

With C[C@H](C(=O)[O-])c1ccc(Nc2nc(C(F)(F)F)cs2)cc1.[Na+] [anhydrous DF2755A, sodium (2S)-2-(4-{[4-(trifluoromethyl)-1,3-thiazol-2-yl]amino}phenyl) propanoate] the Appearance after exposure [1, 8] was “sticky hydrated solid”, the “Water content measured by Karl Fischer analysis after exposure” value [1, 8] was 17% and the “Amount of by-product of hydroxylation at position 4 of the thiazole ring (1H-NMR)” value ([1]; after exposure to humidity, about 25° C., 24 hours) was “about 50 % mol/mol”. The Hygroscopicity ([1]; anhydrous form, absorbs water from the environment) was “highly hygroscopic”, the Stability conclusion ([1]; under the test conditions (50% R.H., about 25° C., 24 hours)) was “both physically and chemically unstable” and the “Inhibitory activity of CXCR1 receptor” value (CXCR1) was “selective dual potent inhibitory activity”. The “Inhibitory activity of CXCR2 receptor” value (CXCR2) was “selective dual potent inhibitory activity” and the Oral pharmacokinetic profile [2] was “favorable”.

With C[C@H](C(=O)[O-])c1ccc(Nc2nc(C(F)(F)F)cs2)cc1.O.[Na+] [monohydrate DF2755A, crystalline monohydrate sodium (2S)-2-(4-{[4-(trifluoromethyl)-1,3-thiazol-2-yl]amino}phenyl) propanoate] the “Assay % (HPLC)” value ([3]; 40° C./75% R.H., 0 months) was 97.40%, the “DFL23803 (HPLC) by-product content” value ([3]; 40° C./75% R.H., 0 months) was no more than 0.11% and the “Enantiomeric purity % (HPLC): DF2703Y content” value (from here on “Enantiomeric purity % (HPLC)”) ([3]; 40° C./75% R.H., 0 months) was 1.0%. The “Total impurities content % (HPLC)” value ([3]; 40° C./75% R.H., 0 months) was 0.03%, the “Water content (K.F %)” value ([3]; 40° C./75% R.H., 0 months) was 5.27% and the Appearance ([3]; 40° C./75% R.H., 0 months, limit white to ivory powder) was “Compl”. The Appearance ([3]; 40° C./75% R.H., 1 month) was “Compl”, the “Assay % (HPLC)” value ([3]; 40° C./75% R.H., 1 month) was 96.93% and the “DFL23803 (HPLC) by-product content” value ([3]; 40° C./75% R.H., 1 month) was no more than 0.11%. The “Enantiomeric purity % (HPLC)” value ([3]; 40° C./75% R.H., 1 month) was 1.0%, the “Total impurities content % (HPLC)” value ([3]; 40° C./75% R.H., 1 month) was 0.03% and the “Water content (K.F %)” value ([3]; 40° C./75% R.H., 1 month) was 5.27%. The Appearance ([3]; 40° C./75% R.H., 3 months) was “Compl”, the “Assay % (HPLC)” value ([3]; 40° C./75% R.H., 3 months) was 97.67% and the “DFL23803 (HPLC) by-product content” value ([3]; 40° C./75% R.H., 3 months) was no more than 0.11%. For the same molecule, the “Enantiomeric purity % (HPLC)” value ([3]; 40° C./75% R.H., 3 months) was 1.0%, the “Total impurities content % (HPLC)” value ([3]; 40° C./75% R.H., 3 months) was 0.03% and the “Water content (K.F %)” value ([3]; 40° C./75% R.H., 3 months) was 5.12%. For the same molecule, the Appearance ([3]; 40° C./75% R.H., 6 months) was “Compl”, the “Assay % (HPLC)” value ([3]; 40° C./75% R.H., 6 months) was 96.94% and the “DFL23803 (HPLC) by-product content” value ([3]; 40° C./75% R.H., 6 months) was no more than 0.11%. For the same molecule, the “Enantiomeric purity % (HPLC)” value ([3]; 40° C./75% R.H., 6 months) was 1.0%, the “Total impurities content % (HPLC)” value ([3]; 40° C./75% R.H., 6 months) was 0.03% and the “Water content (K.F %)” value ([3]; 40° C./75% R.H., 6 months) was 4.95%. The Appearance ([3]; 40° C./75% R.H., 12 months) was “Compl”, the “Assay % (HPLC)” value ([3]; 40° C./75% R.H., 12 months) was 100.3% and the “DFL23803 (HPLC) by-product content” value ([3]; 40° C./75% R.H., 12 months) was no more than 0.11%. For the same molecule, the “Enantiomeric purity % (HPLC)” value ([3]; 40° C./75% R.H., 12 months) was 1.0%, the “Total impurities content % (HPLC)” value ([3]; 40° C./75% R.H., 12 months) was 0.02% and the “Water content (K.F %)” value ([3]; 40° C./75% R.H., 12 months) was 5.17%. The Time completely stable ([3]; accelerated conditions B, 40° C. and 75% R.H.) was no less than 12 months, the “DSC profile over time” value ([3]; conditions B, 40° C./75% R.H.) was “substantially the same DSC profile over time” and the Hygroscopicity ([3]; unchanged water content for at least 12 months under accelerated stability conditions) was “not hygroscopic”. The Time completely stable ([4]; 30° C. and 65% R.H.) was no less than 18 months, the “DSC profile over time” value ([4]; 30° C./65% R.H.) was “substantially the same DSC profile over time” and the “Water content by Karl Fisher method” value [5] was 5.27 % by weight. For the same molecule, the “Particle size distribution D(0.1)” value [6] was 2.09 μm, the “Particle size distribution D(0.5)” value [6] was 7.86 μm and the “Particle size distribution D(0.9)” value [6] was 25.42 μm. For the same molecule, the Compressibility index ([7]; 100×(tapped density−bulk density)/tapped density) was 30.7, the Bulk density ([7]; powder of Example 3A) was 0.178 g/mL and the Tapped density ([7]; powder of Example 3A) was 0.256 g/mL. For the same molecule, the Hausner ratio ([7]; tapped density/bulk density) was 1.44.

Reference: patent US20260076949A1, “STABLE MONOHYDRATE OF DF2755A AND PROCESS FOR ITS PREPARATION” (Dompe' Farmaceutici SPA, priority 2023, published 2026)
